Test results taken from the NIST ThermoML archive (doi:10.1021/je800416y).
Numbers after ± are expanded uncertainties.

What was measured:
[1] = wn = mass fraction of the nth substance listed; conditions: 101 kPa, Liquid
[2] = xn = mol fraction of the nth substance listed; conditions: 101 kPa, Liquid

CN(CCO)CCO [N-methyldiethanolamine] + O
mass density [kg/m3]
Conditions	298.15 K	303.15 K	308.15 K	313.15 K	318.15 K	323.15 K	328.15 K	333.15 K	338.15 K
[1], w1 = 0.3228	1027.27 ± 1.1	1024.82 ± 1.1	1022.16 ± 1.1	1019.44 ± 1.1	1016.54 ± 1	1013.63 ± 1	1010.47 ± 0.98	1007.39 ± 0.95	1003.91 ± 0.92
[1], w1 = 0.488	1041.37 ± 1.3	1038.16 ± 1.2	1034.94 ± 1.2	1031.74 ± 1.2	1028.35 ± 1.1	1024.83 ± 1.1	1021.38 ± 1.1	1017.75 ± 1	1014.17 ± 0.99
[2], x1 = 0.0128	1004.06 ± 0.98	1002.48 ± 0.97	1000.7 ± 0.95	998.731 ± 0.95	996.584 ± 0.97	994.273 ± 0.99	991.808 ± 1	989.191 ± 1	986.433 ± 1.1
[2], x1 = 0.0212	1008.41 ± 1	1006.7 ± 1	1004.8 ± 0.99	1002.72 ± 0.97	1000.48 ± 0.94	998.073 ± 0.96	995.518 ± 0.98	992.82 ± 1	989.984 ± 1
[2], x1 = 0.0498	1020.08 ± 1.1	1017.93 ± 1.1	1015.63 ± 1.1	1013.18 ± 1.1	1010.59 ± 1	1007.87 ± 1	1005.02 ± 0.98	1002.04 ± 0.95	998.939 ± 0.94
[2], x1 = 0.0645	1026.39 ± 1.2	1023.98 ± 1.2	1021.43 ± 1.1	1018.77 ± 1.1	1015.98 ± 1.1	1013.06 ± 1.1	1010.03 ± 1	1006.73 ± 1	1003.61 ± 0.97
[2], x1 = 0.0799	1030.85 ± 1.2	1028.25 ± 1.2	1025.53 ± 1.2	1022.69 ± 1.1	1019.74 ± 1.1	1016.68 ± 1.1	1013.51 ± 1.1	1010.24 ± 1	1006.85 ± 0.99
[2], x1 = 0.1332	1042.8 ± 1.3	1039.65 ± 1.3	1036.42 ± 1.3	1033.1 ± 1.2	1029.71 ± 1.2	1026.23 ± 1.2	1022.67 ± 1.1	1019.02 ± 1.1	1015.29 ± 1.1
[2], x1 = 0.1557	1045.44 ± 1.4	1042.17 ± 1.3	1038.83 ± 1.3	1035.41 ± 1.3	1031.92 ± 1.2	1028.34 ± 1.2	1024.69 ± 1.2	1020.96 ± 1.1	1017.15 ± 1.1
[2], x1 = 0.1944	1049.91 ± 1.4	1046.42 ± 1.4	1042.86 ± 1.3	1039.23 ± 1.3	1035.54 ± 1.2	1031.78 ± 1.2	1027.97 ± 1.2	1024.08 ± 1.1	1020.13 ± 1.1
[2], x1 = 0.2407	1050.84 ± 1.4	1048.11 ± 1.4	1044.45 ± 1.3	1040.73 ± 1.3	1036.95 ± 1.3	1033.11 ± 1.2	1029.25 ± 1.2	1025.29 ± 1.1	1021.29 ± 1.1
[2], x1 = 0.2725	1052.41 ± 1.4	1048.8 ± 1.4	1045.14 ± 1.3	1041.41 ± 1.3	1037.63 ± 1.3	1033.74 ± 1.2	1029.77 ± 1.2	1025.95 ± 1.1	1021.9 ± 1.1
[2], x1 = 0.366	1052.54 ± 1.4	1048.78 ± 1.3	1044.97 ± 1.3	1041.1 ± 1.3	1037.2 ± 1.2	1033.24 ± 1.2	1029.24 ± 1.2	1025.2 ± 1.1	1021.1 ± 1.1
[2], x1 = 0.4302	1050.97 ± 1.4	1047.2 ± 1.3	1043.38 ± 1.3	1039.51 ± 1.2	1035.6 ± 1.2	1031.66 ± 1.2	1027.68 ± 1.1	1023.66 ± 1.1	1019.6 ± 1.1
[2], x1 = 0.5642	1046.85 ± 1.3	1043.08 ± 1.3	1039.28 ± 1.2	1035.45 ± 1.2	1031.61 ± 1.1	1027.75 ± 1.1	1023.83 ± 1.1	1019.88 ± 1	1015.88 ± 1
[2], x1 = 0.6687	1041.44 ± 1.2	1037.68 ± 1.2	1033.89 ± 1.2	1030.08 ± 1.1	1026.25 ± 1.1	1022.4 ± 1	1018.52 ± 1	1014.62 ± 0.97	1010.7 ± 0.93
[2], x1 = 0.7531	1039.27 ± 1.2	1035.87 ± 1.2	1031.92 ± 1.1	1028.73 ± 1.1	1025.02 ± 1.1	1020.86 ± 1	1016.84 ± 0.98	1012.83 ± 0.94	1008.96 ± 0.91
